Legend:
[1] = system: mouse insulinoma cells (MIN6); assay: Confocal imaging of MIN6 tumor cell cluster using 2-NBDLG+2-TRLG mixture; assay type: cell-based
Experimental: A 0.1 mg 2-TRLG vial was transferred into a desiccator and the temperature thereof was returned to room temperature. […] Specifically, 6.5 mL of the above-described 2-NBDLG solution was prepared beforehand and stirred vigorously. Then, 40 μL of DMSO was added to a 2-TRLG vial container using a RAININ chip (Mettler Toledo) in which adhesion to the tip wall is ignorable, and stirred with the vial container by a mixer to cause dissolution thereof. 2-TRLG adhered to the wall was collected to the bottom by spinning down, the whole quantity thereof was removed by [sequence] using the same chip, and dissolved in the 2-NBDLG solution being stirred. 2-TRLG slightly remaining in the 2-TRLG vial container was recovered using 25 μL of DMSO in the same manner as described above, and further dissolved in the 2-NBDLG solution. By the above-described method, a mixed solution of 100 μM 2-NBDLG+20 μM 2-TRLG (final concentration) was prepared with good reproducibility.
A 100 μM 2-NBDLG+20 μM 2-TRLG mixture was administered for 3 minutes in a condition completely covering the whole tumor cell cluster. The state of the solution covering the whole cell cluster was confirmed each time without fail by fluorescence images in the green and red wavelength ranges during administration and acquisition of a transmitted light image. By stopping application of the fluorescent glucose mixture and switching simultaneously to the solution to a no fluorescent glucose-containing HEPES solution, the background fluorescence became ignorable level in 1 minute.
By the method according to Example 3, image acquisition before administration of the mixture was started just after starting an experiment, and from then on, the fluorescence images in the blue, green and red wavelength ranges and a transmitted light image were acquired every 2 minutes until completion of the experiment. Regarding laser used, DAPI used for nuclear staining was excited by using 405 nm diode laser (AOTF 20%) and 2-NBDLG and 2-TRLG were excited by using 488 nm argon laser (output: 50%, AOTF 28%). The scan speed was 400 Hz.
For fluorescence detection, three fluorescence detectors were used as described below. For detection of blue fluorescence by DAPI, a photomultiplier detector (PMT)1 was used in the wavelength detection range of 415 to 500 nm (detection sensitivity: 750 V), for detection of green fluorescence by 2-NBDLG, PMT2 was used in the wavelength detection range of 500 to 580 nm (detection sensitivity: 670 V), and for detection of red fluorescence, PMT3 was used in the wavelength detection range of 580 to 740 nm (detection sensitivity: 670 V). Here, most of the fluorescence of 2-TRLG is present in the wavelength longer than 580 nm and only a small fluorescent component is present in the wavelength less than 580 nm, thus, the fluorescence intensity in the range of 500 to 580 nm of PMT2 is barely influenced by 2-TRLG. Therefore, when the amount of detection of 2-TRLG in cells increases, its effect emerges mainly as an increase in the fluorescence intensity in the range of 580 to 740 nm of PMT3. On the other hand, although 2-NBDLG has the maximal fluorescence intensity around 540 to 550 nm, it has fluorescence in the range of 580 to 740 nm as well. Therefore, when the amount of detection of 2-NBDLG within the cell increases, the fluorescence intensity in the range of 580 to 740 nm detected by PMT3 also increases in addition to an increase in the fluorescence intensity in the range of 500 to 580 nm detected by PMT2. […]

[2] = system: mouse insulinoma cells (MIN6); assay: Uptake into MIN6 cells with or without inhibitors, fluorescence microplate reader (Flex Station); assay type: cell-based; details: 200 μM, 5 minutes
Experimental: A difference in the uptake of 2-NBDLG (200 μM) and 2-NBDG (200 μM) into mouse insulinoma cells (MIN6) each applied for 5 minutes was analyzed quantitatively by a fluorescence microplate reader Flex Station (manufactured by Molecular Devices Corporation) in the condition whether or not various inhibitors are present. The well used for measurement was a 96-well clear bottomed well plate μ CLEAR-PLATE (Greiner bio-one, BLACK, 96 well, #655090) having longitudinally […] to 12 twelve columns, and MIN6 cell suspension prepared at a proportion of 6×10^5 cells/mL was seeded uniformly into wells from line B to line G at the third column and the fifth column each in an amount of 15 μL. For medium exchange, the half quantity was exchanged every two days in 0 to 4 DIV (days in vitro), and from 5 DIV or later, exchanged every day, and on days 10 to 13 (10 to 13 DIV), the cells were subjected to an experiment. Line A and line H were used as a control for checking correct washout, without seeding cells. In the fourth column, cells were not present, and wells in this column were used as a blank containing only Krebs Ringer buffer solution (KRB, containing 0.1 mM gap junction inhibitor carbenoxolone and 5.6 mM glucose). Evaluation was done in a way that 2-NBDLG or 2-NBDG was charged in each tube of a 8-strip PCR tube, and sucked using a 8-channel pipette and dropped simultaneously into wells. In this way, administration to wells for 2-NBDLG and to wells for 2-NBDG can be done simultaneously, making reliable evaluation possible. As described above, cells are present in 12 wells in the third and the fifth two columns, and these were divide into 4 groups each having 3 wells according to a difference either 2-NBDLG or 2-NBDG and whether an inhibitor is present or absent. Specifically, when checking the effect by the presence or absence of a GLUT inhibitor Cytochalasin B (10 μM) on the uptake of 2-NBDLG (200 μM) and 2-NBDG (200 μM), first, in wells, which are planned to be measured in the presence of Cytochalasin B, Cytochalasin B was added 5 minutes prior to the administration of the fluorescently labeled glucose derivative. Before administration of a fluorescently labeled glucose derivative, the autofluorescence was measured in each well. The measurement was done with Flex Station in Well Scan Mode and in the Bottom Read position at Ex 470 nm, Em 540 nm, Cut off 495 nm, Averaging 3, and Photomultiplier sensitivity: high. In Well Scan Mode of the fluorescence microplate reader Flex Station, one well was divided into nine observation areas and these are measured independently. The presence of approximately 5000 cells in each of 9-divided areas was separately confirmed by Z section measurement of a realtime deconvolution microscope. 2-NBDG and 2-NBDLG were administered with or without Cytochalasin B (37° C., 5 minutes), and after cessation of administration, an operation of adding 250 μL of a KRB solution containing no fluorescently labeled glucose into 50 μL of a solution in a well was repeated 7 times while measuring with a stopwatch, thereby performing washout until the fluorescence intensities of wells in line A and line H set as a control group became equal to the fluorescence intensity of the blank well containing no cell. This process required 7 minutes, and even if cells having broken plasma membrane condition are brought into contact with 2-NBDG and 2-NBDLG, and even if these compounds are once taken up into the cell, these compounds are already eliminated out of the cell and are washed away in measurement, therefore, contribution to an increase in the fluorescence intensity in the whole observation area was judged to be in an ignorable level. This was supported by a separate pharmacological inhibition experiment in which the increase in the fluorescence intensity nearly disappears in the presence of an inhibitor. The above-described method was carried out similarly in the case of other inhibitors. […]

[3] = 100 μM 2-NBDLG+20 μM 2-TRLG mixture for 3 minutes

In the case of `O=[N+]([O-])c1ccc(NC2C(O)OC(CO)[C@H](O)C2O)c2nonc12` (stereo partly drawn) [2-NBDLG, 2-[N-(7-Nitrobenz-2-oxa-1,3-diazol-4-yl)amino]-2-deoxy-L-glucose], the “fluorescence at the central region of the cell cluster, 4 minutes after cessation of administration” value [1, 3] was “weaken to a considerable extent”, the “uptake into cells just outside of the central region of the cell cluster” value [1, 3] was “taking up almost no” and the “uptake at the central region of the cell cluster, 2 minutes after cessation of administration” value ([1]; 100 μM 2-NBDLG+20 μM 2-TRLG mixture for 3 minutes, green channel (2-NBDLG), red channel (2-TRLG)) was “Intense uptake”. The “time of elimination from spherical cells on the outermost periphery of the cell cluster” value ([1]; 100 μM 2-NBDLG+20 μM 2-TRLG mixture, after cessation of administration) was at most 2 min, the “time of elimination from cells at the central region of the tumor cell cluster” value ([1]; 100 μM 2-NBDLG+20 μM 2-TRLG mixture, between 2 and 4 minutes after cessation) was at most 2 min and the “effect of GLUT inhibitor Cytochalasin B on uptake into MIN6 cells” value ([2]; 37° C., Cytochalasin B (10 µM, CB)) was “did not show a significant decrease (N.S.)”. For the same compound, the “uptake into MIN6 cells in buffer containing Na+ versus no Na+ ion (SGLT)” value ([2]; 37° C., Na(−) buffer, choline substituted) was “no significant difference” and the “effect of Phloretin on uptake into MIN6 cells” value ([2]; Phloretin (150 μM, PHT)) was “underwent inhibition of the uptake”.
